# From ChEMBL document CHEMBL3885861, “Open TG-GATES”
# Organism: Rattus norvegicus
# Experiment: Open TG-GATES - Regimen: Single
# Type: toxicity, organism-based, Sprague-Dawley
# Set-up: regimen Single, gender Male, age 6 weeks
# Settings: in vivo, po, 1000 mg/kg, route gavage, dose level Middle; for APTT / Bas / Eos / Fbg / Hb / Ht / Lym / MCH / MCHC / MCV / Mono / Neu / PT / Plat / RBC / Ret / WBC: tissue Blood; for KIDNEY_L / KIDNEY_R / KIDNEY_TOTAL: tissue Kidney; for LIVER: tissue Liver; for A/G / ALP / ALT / AST / BUN / CRE / Ca / Cl / DBIL / GLC / IP / K / LDH / Na / PL / RALB / TBIL / TC / TG / TP / gamma-GTP: tissue Plasma
structure (smiles),measurement,setting,value
Clc1c(Cl)c(Cl)c(Cl)c(Cl)c1Cl [PERCHLOROBENZENE],TERMINAL_BW,3 h,222.7 g
same,APTT,3 h,18.7 s
same,Bas,3 h,0%
same,Eos,3 h,1%
same,Fbg,3 h,227 mg/dL
same,Hb,3 h,13.3 g/dL
same,Ht,3 h,38%
same,Lym,3 h,78%
same,MCH,3 h,21.8 pg
same,MCHC,3 h,35%
same,MCV,3 h,62.1 fL
same,Mono,3 h,3.2%
same,Neu,3 h,16.4%
same,PT,3 h,11.8 s
same,Plat,3 h,122.1 x10_4/uL
same,RBC,3 h,612 x10_4/ul
same,Ret,3 h,7.6%
same,WBC,3 h,85.3 x10_2/uL
same,KIDNEY_L,3 h,1 g
same,KIDNEY_R,3 h,1 g
same,KIDNEY_TOTAL,3 h,1.9 g
same,LIVER,3 h,10.4 g
same,A/G,3 h,1.7
same,ALP,3 h,992 IU/L
same,ALT,3 h,35.2 IU/L
same,AST,3 h,79.2 IU/L
same,BUN,3 h,11.6 mg/dL
same,CRE,3 h,0.4 mg/dL
same,Ca,3 h,10.9 mg/dL
same,Cl,3 h,104 meq/L
same,DBIL,3 h,0.066 mg/dL
same,GLC,3 h,198.4 mg/dL
same,IP,3 h,8.8 mg/dL
same,K,3 h,3.8 meq/L
same,LDH,3 h,214 IU/L
same,Na,3 h,141.6 meq/L
same,PL,3 h,143.8 mg/dL
same,RALB,3 h,3.5 g/dL
same,TBIL,3 h,0.1 mg/dL
same,TC,3 h,68.6 mg/dL
same,TG,3 h,94.8 mg/dL
same,TP,3 h,5.5 g/dL
same,gamma-GTP,3 h,1 IU/L
same,TERMINAL_BW,6 h,217.7 g
same,APTT,6 h,18.9 s
same,Bas,6 h,0.2%
same,Eos,6 h,1%
same,Fbg,6 h,223.2 mg/dL
same,Hb,6 h,13.4 g/dL
same,Ht,6 h,38.5%
same,Lym,6 h,71.2%
same,MCH,6 h,21.6 pg
same,MCHC,6 h,34.9%
same,MCV,6 h,62.1 fL
same,Mono,6 h,3.2%
same,Neu,6 h,23.4%
same,PT,6 h,12.2 s
same,Plat,6 h,132.8 x10_4/uL
same,RBC,6 h,620.2 x10_4/ul
same,Ret,6 h,7.3%
same,WBC,6 h,100.6 x10_2/uL
same,KIDNEY_L,6 h,1 g
same,KIDNEY_R,6 h,0.9 g
same,KIDNEY_TOTAL,6 h,1.9 g
same,LIVER,6 h,9 g
same,A/G,6 h,1.7
same,ALP,6 h,1078.8 IU/L
same,ALT,6 h,33.4 IU/L
same,AST,6 h,79 IU/L
same,BUN,6 h,10 mg/dL
same,CRE,6 h,0.4 mg/dL
same,Ca,6 h,10.5 mg/dL
same,Cl,6 h,103.4 meq/L
same,DBIL,6 h,0.064 mg/dL
same,GLC,6 h,186 mg/dL
same,IP,6 h,9 mg/dL
same,K,6 h,4.1 meq/L
same,LDH,6 h,224 IU/L
same,Na,6 h,141.4 meq/L
same,PL,6 h,127.4 mg/dL
same,RALB,6 h,3.4 g/dL
same,TBIL,6 h,0.1 mg/dL
same,TC,6 h,69.4 mg/dL
same,TG,6 h,55.2 mg/dL
same,TP,6 h,5.4 g/dL
same,gamma-GTP,6 h,1 IU/L
same,TERMINAL_BW,9 h,216.4 g
same,APTT,9 h,19.1 s
same,Bas,9 h,0.2%
same,Eos,9 h,1%
same,Fbg,9 h,220.6 mg/dL
same,Hb,9 h,13.5 g/dL
same,Ht,9 h,38.5%
same,Lym,9 h,72%
same,MCH,9 h,21.2 pg
same,MCHC,9 h,34.9%
same,MCV,9 h,60.6 fL
same,Mono,9 h,2.8%
same,Neu,9 h,23%
same,PT,9 h,12.3 s
same,Plat,9 h,124.7 x10_4/uL
same,RBC,9 h,636 x10_4/ul
same,Ret,9 h,6.9%
same,WBC,9 h,72.6 x10_2/uL
same,KIDNEY_L,9 h,1 g
same,KIDNEY_R,9 h,1 g
same,KIDNEY_TOTAL,9 h,1.9 g
same,LIVER,9 h,8.8 g
same,A/G,9 h,1.6
same,ALP,9 h,926.6 IU/L
same,ALT,9 h,27.4 IU/L
same,AST,9 h,63.4 IU/L
same,BUN,9 h,11.2 mg/dL
same,CRE,9 h,0.3 mg/dL
same,Ca,9 h,10.5 mg/dL
same,Cl,9 h,103.4 meq/L
same,DBIL,9 h,0.058 mg/dL
same,GLC,9 h,201.2 mg/dL
same,IP,9 h,10.4 mg/dL
same,K,9 h,3.8 meq/L
same,LDH,9 h,191.4 IU/L
same,Na,9 h,142 meq/L
same,PL,9 h,121.2 mg/dL
same,RALB,9 h,3.3 g/dL
same,TBIL,9 h,0.1 mg/dL
same,TC,9 h,61 mg/dL
same,TG,9 h,39 mg/dL
same,TP,9 h,5.4 g/dL
same,gamma-GTP,9 h,1.2 IU/L
same,TERMINAL_BW,24 h,230.6 g
same,APTT,24 h,18.3 s
same,Bas,24 h,0.2%
same,Eos,24 h,1%
same,Fbg,24 h,240.8 mg/dL
same,Hb,24 h,13.6 g/dL
same,Ht,24 h,39.3%
same,Lym,24 h,74.2%
same,MCH,24 h,21.3 pg
same,MCHC,24 h,34.5%
same,MCV,24 h,61.6 fL
same,Mono,24 h,3%
same,Neu,24 h,20.6%
same,PT,24 h,11.7 s
same,Plat,24 h,128 x10_4/uL
same,RBC,24 h,637.6 x10_4/ul
same,Ret,24 h,6.5%
same,WBC,24 h,80.8 x10_2/uL
same,KIDNEY_L,24 h,1 g
same,KIDNEY_R,24 h,1 g
same,KIDNEY_TOTAL,24 h,2.1 g
same,LIVER,24 h,11.1 g
same,A/G,24 h,1.5
same,ALP,24 h,901 IU/L
same,ALT,24 h,35.4 IU/L
same,AST,24 h,66.2 IU/L
same,BUN,24 h,14.2 mg/dL
same,CRE,24 h,0.4 mg/dL
same,Ca,24 h,11 mg/dL
same,Cl,24 h,103.4 meq/L
same,DBIL,24 h,0.056 mg/dL
same,GLC,24 h,204.8 mg/dL
same,IP,24 h,6.9 mg/dL
same,K,24 h,3.8 meq/L
same,LDH,24 h,230.6 IU/L
same,Na,24 h,141.4 meq/L
same,PL,24 h,152.8 mg/dL
same,RALB,24 h,3.4 g/dL
same,TBIL,24 h,0.096 mg/dL
same,TC,24 h,80.4 mg/dL
same,TG,24 h,133.6 mg/dL
same,TP,24 h,5.6 g/dL
same,gamma-GTP,24 h,1 IU/L
